Molecules are shown by their SMILES. In brackets after ≈: the same amount, converted by molar mass. Read-outs that look alike come from different tables or passages of the source.

A short description of one data set: MT-4 cytotoxicity assay. As to conditions: human, MT-4 cells (uninfected), 4-5 days, read-out: CC50 MT4. In kind it is cell-based. On the procedure:
Cytotoxicity of the compound of Formula I and compounds 1, 2, and 6 was determined in uninfected cells using the cell viability reagent in a similar fashion as described before for other cell types (Cihlar et al., Antimicrob Agents Chemother. 2008, 52(2):655-65.). HEp-2 (1.5×10^3 cells/well) and MT-4 (2×10^3 cells/well) cells were plated in 384-well plates and incubated with the appropriate medium containing 3-fold serially diluted compound ranging from 15 nM to 100,000 nM. Cells were cultured for 4-5 days at 37° C. Following the incubation, the cells were allowed to equilibrate to 25° C., and cell viability was determined by adding Cell-Titer Glo viability reagent. The mixture was incubated for 10 min, and the luminescence signal was quantified using an Envision plate reader. Untreated cell and cells treated at 2 μM puromycin (Sigma, St. Louis, MO) serve as 100% and 0% cell viability control, respectively.

The nature of data set [1]: Thermodynamic solubility assay. The class given is physicochemical. The following applies: thermodynamic from solid, room temperature, four days. On the procedure:
Excess solid compound was used to saturate aqueous samples of the compounds. The tubes were placed on an agitator set at 1000 rpm and remained under constant agitation for four days. Following agitation, it was confirmed that excess solids were present in all tubes. The tubes were centrifuged at 10,000 rpm for 5 minutes to remove excess solids and the supernatant was transferred to a new vial. Concentration analysis was determined by UPLC and quantified against internal standards.

The subject of a further data set is HCV replicon 2A. In words: HCV Rep 2A EC50. As to conditions: for EC50: Hepatitis C virus, 72 h, HCV replicon cells, 3 days. In kind it is cell-based. On the procedure:
Compounds were serially diluted in ten steps of 1:3 dilutions in 384-well plates. All serial dilutions were performed in four replicates per compound within the same 384-well plate. […] To each well of a black polystyrene 384-well plate (Greiner Bio-one, Monroe, NC), 90 μL of cell culture medium (without Geneticin) containing 2000 suspended HCV replicon cells was added with a Biotek μFlow workstation. For compound transfer into cell culture plates, 0.4 μL of compound solution from the compound serial dilution plate was transferred to the cell culture plate on a Biomek FX workstation. The DMSO concentration in the final assay wells was 0.44%. The plates were incubated for 3 days at 37° C. with 5% CO2 and 85% humidity. The HCV replicon assay was a multiplex assay, able to assess both cytotoxicity and antireplicon activity from the same well. The CC50 assay was performed first. The media in the 384-well cell culture plate was aspirated, and the wells were washed four times with 100 μL of PBS each, using a Biotek ELX405 plate washer. A volume of 50 μL of a solution containing 400 nM calcein AM (Anaspec, Fremont, CA) in 1×PBS was added to each well of the plate with a Biotek μFlow workstation. The plate was incubated for 30 min at room temperature before the fluorescence signal (excitation 490 nm, emission 520 nm) was measured with a Perkin-Elmer Envision plate reader. The EC50 assay was performed in the same wells as the CC50 assay. The calcein-PBS solution in the 384-well cell culture plate was aspirated with a Biotek ELX405 plate washer. A volume of 20 μL of Dual-Glo luciferase buffer (Promega, Madison, WI) was added to each well of the plate with a Biotek μFlow Workstation. The plate was incubated for 10 min at room temperature. […] The plate was then incubated at room temperature for 10 min before the luminescence signal was measured with a Perkin-Elmer Envision Plate Reader.

A short description of a further data set: SAEC cytotoxicity assay. The class given is cell-based. The following applies: human, small airway epithelial cells (SAEC). On the procedure: Human Small Airway Epithelial cells (SAEC) were purchased from Lonza (Walkersville, MD, Cat #CC-2547) and cultured in supplemented Small Airway Epithelial Cell Growth Medium (SAGM) (lonza, Walkersville, MD, Cat #CC-3118). The cells were passaged 1-2 times per week to maintain <80% confluency per manufacturer's protocol. The SAEC cells were discarded after 5 passages in culture.
Following attachment, 3-fold serially diluted compound was added using a Hewlett-Packard D300 Digital Dispenser (Hewlett Packard, Palo Alto, CA) in triplicate. The final concentration of DMSO was normalized to 1.0%. Following compound addition, NHBE or SAEC cells were incubated at 37° C. for 5 days. The NHBE or SAEC cells were then allowed to equilibrate to 25° C. and cell viability was determined by removing 100 μL of culture medium and adding 100 μL of Cell-Titer Glo viability reagent (Promega, Madison, WI). The mixtures were incubated for 10 minutes at 25° C., and the luminescence signal was quantified on an Envision luminescence plate reader (PerkinElmer, Waltham, MA). Percent viability values were determined by normalization to 1.0% DMSO-only control wells with background luminescent signal subtracted out.

Data set [2] in a line: Stability assay in cynomolgus monkey hepatic S9 fractions. In kind it is in vitro ADME. As to conditions: 37° C., NADPH and UDPGA, read-out: Cyno HepS9 t1/2. On the procedure: For S9 stability, the compounds were incubated at 2 μM in cynomolgus monkey or human hepatic S9 fractions for up to 90 min at 37° C. in the presence of NADPH and UDPGA (Phase I and Phase II cofactor, Sigma-Aldrich). At desired time points following compound addition, samples were quenched with 9 volumes of an aqueous solution containing internal standard, 50% acetonitrile and 25% methanol. Sample plates were centrifuged at 3000 g for 30 min, and 10 μL of the resulting solution was analyzed by LC-MS/MS. Data (analyte to internal standard peak area ratio) were plotted on a semi log scale and fitted using an exponential fit. The half-life (T1/2) was determined assuming first order kinetics.

The next data set in a line: in vitro. In kind it is cell-based. As to conditions: human, read-out: CC50 GALPC3. On the procedure: Compounds were tested in a high-throughput 384-well assay format for cytotoxicity in galactose-adapted PC3 cells (human prostate cancer cell line). Cells were diluted in media (DMEM (11966), 10% FBS, 1% NEAA, 0.2% Galactose, 1% Pyruvate, 1% Glutamax, 1% PSG) to 16.6K cells/mL and plated at 90 uL/well into 384 well poly-D-lysine coated assay plates and placed in an incubator at 37° C. and 5% CO2. Compounds were serially diluted (1:3) in 100% DMSO in 384-well plates in quadruplicate. DMSO and 2 mM Puromycin were included as negative and positive controls respectively. 24 hours after cell plating, a 384 channel pipettor was used to transfer 0.4 uL from the compound plate to the assay plate. Assay plates are returned to the incubator. After 5 days, assay plates are washed with 80 uL/well of PBS before addition of 20 μL of Cell Titer Glo. Assay plates are read on the Envision plate reader. […] CC50 values were calculated in Accord (on-line tool) using a one-site dose-response model to generate sigmoidal curve fits.

The mark [3] stands for this setting: pH 7, aqueous buffer, phosphate buffered saline solution, read-out: pH 7 Solubility.
Setting [4] is: simulated gastric fluid, 10 mM hydrochloric acid (pH 2.0), read-out: pH 2 Solubility.

With `CCOC(=O)[C@H](C)NP(=O)(OC[C@@]1(C#N)O[C@@H](c2ccc3c(N)ncnn23)[C@H](O)[C@@H]1O)Oc1ccccc1` (stereo partly drawn) [Compound 1, reference compound], the half-maximal cytotoxic concentration (CC50) in “MT-4 cytotoxicity assay” turned out to be 52.4 µM.
As for `CCC(CC)COC(=O)[C@H](C)NP(=O)(OC[C@@]1(C#N)O[C@@H](c2ccc3c(N)ncnn23)[C@H](O)[C@@H]1O)Oc1ccccc1` (stereo partly drawn) [Compound 2, reference compound], the solubility thermodynamic at 4 days in data set [1] (setting [3]) was 18 µg/mL (≈ 0.0299 mM); in data set [1] (setting [4]), 3720 µg/mL (≈ 6.17 mM). In the data set “MT-4 cytotoxicity assay”, the CC50 is greater than 43.7 µM. Besides, the response with HCV replicon 2A was half-maximal at 1.83 µM (EC50). Further, the midpoint of cytotoxicity in “SAEC cytotoxicity assay”, the CC50 at 5 days, lay at 28.3 µM. Moreover, the half-life at 2 μM in data set [2] worked out at 3 min.
With `CCC(CC)COC(=O)[C@H](C)N[P@](=O)(OC[C@@]1(C#N)O[C@@H](c2ccc3c(N)ncnn23)[C@H](O)[C@@H]1O)Oc1ccccc1` [Compound 6, 2-ethylbutyl ((S)-(((2R,3S,4R,5S)-5-(4-aminopyrrolo[2,1-f][1,2,4]triazin-7-yl)-2-cyano-3,4-dihydroxytetrahydrofuran-2-yl)methoxy)(phenoxy)phosphoryl)alaninate], the solubility thermodynamic at 4 days in data set [1] (setting [3]) was 16 µg/mL (≈ 0.0266 mM); in data set [1] (setting [4]), 3790 µg/mL (≈ 6.29 mM). In the data set “MT-4 cytotoxicity assay”, the CC50 was determined as 38.8 µM. The CC50 at 5 days was greater than 83.5 µM in “in vitro” and 27.2 µM in “SAEC cytotoxicity assay”. Further, the half-life at 2 μM in data set [2] was 2 min.
On to `C[C@H](N[P@](=O)(OC[C@@]1(C#N)O[C@@H](c2ccc3c(N)ncnn23)[C@H](O)[C@@H]1O)Oc1ccccc1)C(=O)OC1CCCCC1` [Formula I, cyclohexyl ((S)-(((2R,3S,4R,5S)-5-(4-aminopyrrolo[2,1-f][1,2,4]triazin-7-yl)-2-cyano-3,4-dihydroxytetrahydrofuran-2-yl)methoxy)(phenoxy)phosphoryl)-L-alaninate], for which the solubility thermodynamic at 4 days in data set [1] (setting [3]) was 131 µg/mL; in data set [1] (setting [4]), 4120 µg/mL. Further, in “MT-4 cytotoxicity assay”, the CC50 was determined as 56.2 µM. In the data set with HCV replicon 2A (EC50 ratio vs compound 2), the “times more potent relative to compound 2, HCV Rep 2A” value is on record as roughly 1.4 times. In the data set with HCV replicon 2A, this compound yielded an EC50 of 1.27 µM. Moreover, the results for the CC50 at 5 days in the data set “in vitro” and in “SAEC cytotoxicity assay” were greater than 44.4 µM and 123 µM, respectively. The half-life at 2 μM in data set [2] was found to be 26 min.

The values are drawn from patent US20250034186A1, “ANTIVIRAL COMPOUNDS” (priority 2020, published 2025).
